Like-named read-outs stand apart in the source and are kept apart here.

In one assay the test system is PT45. On the set-up: MTT antiproliferation assay, absorbance at 570 nm, human cancer cell line panel. The conditions noted are these: 3-day MTT; inhibitor; read-out: Table S1. IC50 of CCT271850 determined by MTT and clonogenic assays (CA). / All cell lines were tested at least 2 times. / 3-day MTT. The procedure:
(§1) Cell lines were obtained from the American Type Culture Collection and grown in their recommended culture medium, supplemented with 10% FBS at 37 °C in 5% CO2. In-house authentication of cell lines by SNP profiling was carried out and cultured cells were passaged for less than 6 months before replacement from early-passage frozen stocks. Cells were regularly screened for Mycoplasma, using a PCR-based assay (VenorGem; Minerva Biolabs, Berlin, Germany). Transfections were carried out at ∼80% confluency with the plasmids indicated, using Lipofectamine LTX (15338030, Life Technologies, Carlsbad, CA, USA) according to the manufacturer's instructions. Cell proliferation assays were carried out by colorimetric MTT method (Sigma, St Louis, MO, USA) as described elsewhere ([Mosmann, 1983]). Briefly, cells were plated in 96-well plates at 2000–5000 cells per well (depending on the cell line) followed by treatment with two-fold dilutions of 0–25 μM drug for 72 h. Absorbance was measured at 570 nm with the Wallac VICTOR2 1420 Multilabel Counter (PerkinElmer, Waltham, MA, USA). To evaluate CCT271850 antiproliferation effects in a large panel of human cancer cell lines, 91 cell lines were treated for 72 h and 14 days at different compound concentrations in growth inhibition assays. The growth inhibition values as measured by IC50 are summarised in Table 2 and Supplementary Table S1. […] Cell lines from colon and head and neck cancers were among the most sensitive.
(Formazan colour is commonly taken as a measure of viable cells.)

For another assay, the system named is PJ34. Also noted: MTT antiproliferation assay, absorbance at 570 nm, human cancer cell line panel. The note with it: 3-day MTT; inhibitor; read-out: Table S1. IC50 of CCT271850 determined by MTT and clonogenic assays (CA). / All cell lines were tested at least 2 times. / 3-day MTT. Here is the method: as §1
The subject of the next assay is Hs766T. On the set-up: MTT antiproliferation assay, absorbance at 570 nm, human cancer cell line panel. The conditions noted are these: 3-day MTT; inhibitor; read-out: Table S1. IC50 of CCT271850 determined by MTT and clonogenic assays (CA). / All cell lines were tested at least 2 times. / 3-day MTT. The procedure:
as §1

The subject of the next assay is HN3. Also noted: MTT antiproliferation assay, absorbance at 570 nm, human cancer cell line panel. The note with it: 3-day MTT; inhibitor; read-out: Table S1. IC50 of CCT271850 determined by MTT and clonogenic assays (CA). / All cell lines were tested at least 2 times. / 3-day MTT. Here is the method:
as §1

The next assay relates to 011A. On the set-up: MTT antiproliferation assay, absorbance at 570 nm, human cancer cell line panel. The note with it: 3-day MTT; inhibitor; read-out: Table S1. IC50 of CCT271850 determined by MTT and clonogenic assays (CA). / All cell lines were tested at least 2 times. / 3-day MTT. The procedure: as §1
The subject of another assay is OVCAR5. On the set-up: MTT antiproliferation assay, absorbance at 570 nm, human cancer cell line panel. The note with it: 3-day MTT; inhibitor; read-out: Table S1. IC50 of CCT271850 determined by MTT and clonogenic assays (CA). / All cell lines were tested at least 2 times. / 3-day MTT. Here is the method: as §1
The test system of the next assay is TYK-Nu. On the set-up: MTT antiproliferation assay, absorbance at 570 nm, human cancer cell line panel. The note with it: 3-day MTT; inhibitor; read-out: Table S1. IC50 of CCT271850 determined by MTT and clonogenic assays (CA). / All cell lines were tested at least 2 times. / 3-day MTT. The procedure:
as §1

The test system of another assay is OAW42. Also noted: MTT antiproliferation assay, absorbance at 570 nm, human cancer cell line panel. The note with it: 3-day MTT; inhibitor; read-out: Table S1. IC50 of CCT271850 determined by MTT and clonogenic assays (CA). / All cell lines were tested at least 2 times. / 3-day MTT. The procedure: as §1
The test system of the next assay is CAL27. On the set-up: MTT antiproliferation assay, absorbance at 570 nm, human cancer cell line panel. The conditions noted are these: 3-day MTT; inhibitor; read-out: Table S1. IC50 of CCT271850 determined by MTT and clonogenic assays (CA). / All cell lines were tested at least 2 times. / 3-day MTT. The procedure:
as §1

Another assay has as its system RMG1. Also noted: MTT antiproliferation assay, absorbance at 570 nm, human cancer cell line panel. The conditions noted are these: 3-day MTT; inhibitor; read-out: Table S1. IC50 of CCT271850 determined by MTT and clonogenic assays (CA). / All cell lines were tested at least 2 times. / 3-day MTT. The procedure: as §1
The subject of the next assay is AspC-1. Also noted: MTT antiproliferation assay, absorbance at 570 nm, human cancer cell line panel. The conditions noted are these: 3-day MTT; inhibitor; read-out: Table S1. IC50 of CCT271850 determined by MTT and clonogenic assays (CA). / All cell lines were tested at least 2 times. / 3-day MTT. Here is the method: as §1
For the next assay, the system named is O13. Also noted: MTT antiproliferation assay, absorbance at 570 nm, human cancer cell line panel. The conditions noted are these: 3-day MTT; inhibitor; read-out: Table S1. IC50 of CCT271850 determined by MTT and clonogenic assays (CA). / All cell lines were tested at least 2 times. / 3-day MTT. Here is the method:
as §1

The next assay concerns OAW28. Also noted: MTT antiproliferation assay, absorbance at 570 nm, human cancer cell line panel. The conditions noted are these: 3-day MTT; inhibitor; read-out: Table S1. IC50 of CCT271850 determined by MTT and clonogenic assays (CA). / All cell lines were tested at least 2 times. / 3-day MTT. The procedure: as §1
The test system of the next assay is Miapaca-2. On the set-up: MTT antiproliferation assay, absorbance at 570 nm, human cancer cell line panel. The conditions noted are these: 3-day MTT; inhibitor; read-out: Table S1. IC50 of CCT271850 determined by MTT and clonogenic assays (CA). / All cell lines were tested at least 2 times. / 3-day MTT. The procedure: as §1
For a further assay, the system named is PJ41. On the set-up: MTT antiproliferation assay, absorbance at 570 nm, human cancer cell line panel. The note with it: 3-day MTT; inhibitor; read-out: Table S1. IC50 of CCT271850 determined by MTT and clonogenic assays (CA). / All cell lines were tested at least 2 times. / 3-day MTT. The procedure: as §1
A further assay relates to PATU-8988T. Also noted: MTT antiproliferation assay, absorbance at 570 nm, human cancer cell line panel. The note with it: 3-day MTT; inhibitor; read-out: Table S1. IC50 of CCT271850 determined by MTT and clonogenic assays (CA). / All cell lines were tested at least 2 times. / 3-day MTT. Here is the method:
as §1

For the next assay, the system named is 015B. On the set-up: MTT antiproliferation assay, absorbance at 570 nm, human cancer cell line panel. The note with it: 3-day MTT; inhibitor; read-out: Table S1. IC50 of CCT271850 determined by MTT and clonogenic assays (CA). / All cell lines were tested at least 2 times. / 3-day MTT. Here is the method: as §1
In the next assay the test system is 005B. On the set-up: MTT antiproliferation assay, absorbance at 570 nm, human cancer cell line panel. The note with it: 3-day MTT; inhibitor; read-out: Table S1. IC50 of CCT271850 determined by MTT and clonogenic assays (CA). / All cell lines were tested at least 2 times. / 3-day MTT. Here is the method:
as §1

The next assay deals with OVCAR8. Also noted: MTT antiproliferation assay, absorbance at 570 nm, human cancer cell line panel. The conditions noted are these: 3-day MTT; inhibitor; read-out: Table S1. IC50 of CCT271850 determined by MTT and clonogenic assays (CA). / All cell lines were tested at least 2 times. / 3-day MTT. Here is the method: as §1
For a further assay, the system named is Det562. On the set-up: MTT antiproliferation assay, absorbance at 570 nm, human cancer cell line panel. The note with it: 3-day MTT; inhibitor; read-out: Table S1. IC50 of CCT271850 determined by MTT and clonogenic assays (CA). / All cell lines were tested at least 2 times. / 3-day MTT. Here is the method: as §1
A further assay deals with SMOV2. Also noted: MTT antiproliferation assay, absorbance at 570 nm, human cancer cell line panel. The note with it: 3-day MTT; inhibitor; read-out: Table S1. IC50 of CCT271850 determined by MTT and clonogenic assays (CA). / All cell lines were tested at least 2 times. / 3-day MTT. Here is the method:
as §1

The test system of assay [1] is HN6. On the set-up: MTT antiproliferation assay, absorbance at 570 nm, human cancer cell line panel. The conditions noted are these: 3-day MTT; inhibitor; read-out: Table S1. IC50 of CCT271850 determined by MTT and clonogenic assays (CA). / All cell lines were tested at least 2 times. / 3-day MTT. Here is the method: as §1
Another assay concerns Capan-2. On the set-up: MTT antiproliferation assay, absorbance at 570 nm, human cancer cell line panel. The conditions noted are these: 3-day MTT; inhibitor; read-out: Table S1. IC50 of CCT271850 determined by MTT and clonogenic assays (CA). / All cell lines were tested at least 2 times. / 3-day MTT. The procedure: as §1
Assay [2] deals with HN6. Also noted: clonogenic colony formation assay, growth inhibition IC50. The conditions noted are these: 14-day clonogenic; read-out: Table S1. IC50 of CCT271850 determined by MTT and clonogenic assays (CA). / All cell lines were tested at least 2 times. / 14-day CA. Here is the method:
To evaluate CCT271850 antiproliferation effects in a large panel of human cancer cell lines, 91 cell lines were treated for 72 h and 14 days at different compound concentrations in growth inhibition assays. The growth inhibition values as measured by IC50 are summarised in Table 2 and Supplementary Table S1. […] Cell lines from colon and head and neck cancers were among the most sensitive.

Turning to `COc1cc(-c2cnn(C)c2)ccc1Nc1ncc2ccnc(N[C@@H](C)C(C)(C)C)c2n1` [34h, CCT271850], the IC50 in the assay with PT45 was found to be 960 nM; in the assay with PJ34, 1120 nM; in the assay on Hs766T, 1900 nM; in the assay on HN3 it was 845 nM; with 011A it was 1620 nM; with OVCAR5, 730 nM. In addition, the IC50 with TYK-Nu came to 990 nM; with OAW42, 880 nM; in the assay with CAL27, 227 nM; in the assay on RMG1, 111 nM; with AspC-1, 2400 nM; in the assay with O13, 1260 nM. Besides, the IC50 with OAW28 is 1020 nM; in the assay on Miapaca-2, 245 nM; in the assay with PJ41 it was 520 nM; in the assay with PATU-8988T it was 665 nM; in the assay on 015B, 350 nM; in the assay on 005B, 440 nM. Further, the IC50 in the assay on OVCAR8 came out at 1230 nM; with Det562, 1310 nM; in the assay with SMOV2, 795 nM; with HN6 [1], 330 nM; in the assay with Capan-2, 1550 nM; in the assay with HN6 [2] it was 15 µM.

These data come from article PMC5418449, “Characterisation of CCT271850, a selective, oral and potent MPS1 inhibitor, used to directly measure in vivo MPS1 inhibition vs therapeutic efficacy” (British Journal of Cancer, 2017).
